According to PubChem BioAssay AID2060498 (Molecular Pharmacology Branch, DTP, NCI, 2025):

Tested on: 171881-019-R-J1-PDC tumor spheroids, viability
Experiment: Anticancer human tumor 171881-019-R-J1-PDC patient-derived invasive breast carcinoma cell line growth inhibition [GQUAD]
Details: spheroids with HUVEC and MSC; for IC50: curve of first compound; for viability, T/C: stronger effect = lower value
How it was run: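 Tumor cells were grown as complex spheroids with HUVEC endothelial cells and mesenchymal stem cells as stroma. G-quadruplex stabilizers were combined with targeted agents over half-log dilutions from near the clinical Cmax, or from 10 microM.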

[1] = second compound 0.0316 µM, first compound 0.0316 µM
[2] = second compound 0.0316 µM, first compound 0.1 µM
[3] = second compound 0.0316 µM, first compound 0.316 µM
[4] = second compound 0.0316 µM, first compound 1 µM
[5] = second compound 0.0316 µM, first compound 3.16 µM
[6] = second compound 0.0316 µM, first compound 10 µM
[7] = second compound 0.1 µM, first compound 0.0316 µM
[8] = second compound 0.1 µM, first compound 0.1 µM
[9] = second compound 0.1 µM, first compound 0.316 µM
[10] = second compound 0.1 µM, first compound 1 µM
[11] = second compound 0.1 µM, first compound 3.16 µM
[12] = second compound 0.1 µM, first compound 10 µM
[13] = second compound 0.316 µM, first compound 0.0316 µM
[14] = second compound 0.316 µM, first compound 0.1 µM
[15] = second compound 0.316 µM, first compound 0.316 µM
[16] = second compound 0.316 µM, first compound 1 µM
[17] = second compound 0.316 µM, first compound 3.16 µM
[18] = second compound 0.316 µM, first compound 10 µM
[19] = second compound 1 µM, first compound 0.0316 µM
[20] = second compound 1 µM, first compound 0.1 µM
[21] = second compound 1 µM, first compound 0.316 µM
[22] = second compound 1 µM, first compound 1 µM
[23] = second compound 1 µM, first compound 3.16 µM
[24] = second compound 1 µM, first compound 10 µM
[25] = second compound 3.16 µM, first compound 0.0316 µM
[26] = second compound 3.16 µM, first compound 0.1 µM
[27] = second compound 3.16 µM, first compound 0.316 µM
[28] = second compound 3.16 µM, first compound 1 µM
[29] = second compound 3.16 µM, first compound 3.16 µM
[30] = second compound 3.16 µM, first compound 10 µM
[31] = second compound 10 µM, first compound 0.0316 µM
[32] = second compound 10 µM, first compound 0.1 µM
[33] = second compound 10 µM, first compound 0.316 µM
[34] = second compound 10 µM, first compound 1 µM
[35] = second compound 10 µM, first compound 3.16 µM
[36] = second compound 10 µM, first compound 10 µM
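Note: spheroids exposed to compounds for 7 days.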
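Throughout, for viability, T/C: 100% = DMSO vehicle control viability.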

CCCS(=O)(=O)Nc1ccc(F)c(C(=O)c2c[nH]c3ncc(-c4ccc(Cl)cc4)cc23)c1F + CN(C)c1ccc(Nc2c3ccc(NC(=O)CCN4CCCC4)cc3nc3cc(NC(=O)CCN4CCCC4)ccc23)cc1
IC50 (second compound 0.0316 µM): 9.82 µM | IC50 (second compound 0.1 µM): 9.48 µM | IC50 (second compound 0.316 µM): 3.26 µM | IC50 (second compound 1 µM): < 0.0316 µM | IC50 (second compound 3.16 µM): < 0.0316 µM | IC50 (second compound 10 µM): < 0.0316 µM | viability, T/C [1]: 99.8% | viability, T/C [2]: 108% | viability, T/C [3]: 102% | viability, T/C [4]: 116% | viability, T/C [5]: 93.7% | viability, T/C [6]: 49.2% | viability, T/C [7]: 76.9% | viability, T/C [8]: 100% | viability, T/C [9]: 84.2% | viability, T/C [10]: 104% | viability, T/C [11]: 94.5% | viability, T/C [12]: 47.9% | viability, T/C [13]: 43.8% | viability, T/C [14]: 53.4% | viability, T/C [15]: 55.8% | viability, T/C [16]: 44.1% | viability, T/C [17]: 56.2% | viability, T/C [18]: 25.8% | viability, T/C [19]: 5.16% | viability, T/C [20]: 3.85% | viability, T/C [21]: 4.58% | viability, T/C [22]: 3.58% | viability, T/C [23]: 3.49% | viability, T/C [24]: 3.08% | viability, T/C [25]: 0.35% | viability, T/C [26]: 0.31% | viability, T/C [27]: 0.72% | viability, T/C [28]: 0.43% | viability, T/C [29]: 0.5% | viability, T/C [30]: 0.53% | viability, T/C [31]: 0.11% | viability, T/C [32]: 0.23% | viability, T/C [33]: 0.24% | viability, T/C [34]: 0.32% | viability, T/C [35]: 0.57% | viability, T/C [36]: 0.3%

COc1ncnc(C2CC2)c1-c1ncc2cnn(Cc3ccc(-c4nc(C(F)(F)F)cn4C(C)C)cc3)c2n1 + CN(C)c1ccc(Nc2c3ccc(NC(=O)CCN4CCCC4)cc3nc3cc(NC(=O)CCN4CCCC4)ccc23)cc1
IC50 (second compound 0.0316 µM): > 10 µM | IC50 (second compound 0.1 µM): > 10 µM | IC50 (second compound 0.316 µM): < 0.0316 µM | IC50 (second compound 1 µM): < 0.0316 µM | IC50 (second compound 3.16 µM): < 0.0316 µM | IC50 (second compound 10 µM): < 0.0316 µM | viability, T/C [1]: 86.7% | viability, T/C [2]: 100% | viability, T/C [3]: 101% | viability, T/C [4]: 104% | viability, T/C [5]: 92.8% | viability, T/C [6]: 86.3% | viability, T/C [7]: 97% | viability, T/C [8]: 93.3% | viability, T/C [9]: 90.3% | viability, T/C [10]: 88.9% | viability, T/C [11]: 80.3% | viability, T/C [12]: 67.1% | viability, T/C [13]: 39.9% | viability, T/C [14]: 37% | viability, T/C [15]: 35.6% | viability, T/C [16]: 28.8% | viability, T/C [17]: 24.3% | viability, T/C [18]: 11.6% | viability, T/C [19]: 3.06% | viability, T/C [20]: 1.98% | viability, T/C [21]: 2.28% | viability, T/C [22]: 1.99% | viability, T/C [23]: 1.79% | viability, T/C [24]: 1.02% | viability, T/C [25]: 0.27% | viability, T/C [26]: 0.25% | viability, T/C [27]: 0.36% | viability, T/C [28]: 0.22% | viability, T/C [29]: 0.34% | viability, T/C [30]: 0.18% | viability, T/C [31]: 0.13% | viability, T/C [32]: 0.32% | viability, T/C [33]: 0.16% | viability, T/C [34]: 0.41% | viability, T/C [35]: 0.41% | viability, T/C [36]: 0.19%
